Measured values from patent US5663207A, “Gem-dichlorocyclopropanes as antitumor agents” (priority 1995, dated 1997).
Entries after “also recorded” stand apart in the source; their conditions may differ. Read-outs that look alike come from different tables or passages of the source.

How the values were obtained:
[1] = Stability observed during isolation and storage; format: physicochemical; conditions: on concentration, drying or storage
Description: The structures of all compounds were supported by their proton NMR spectra, which were measured on either a Varian EM-360A or XL-300 spectrometer. The spectra are reported in parts per million in CDCl3 unless otherwise noted, with tetramethysilane as the internal standard. Infrared spectra were obtained from KBr pellets on a Beckman Acculab 1 spectrometer and were consistent with the assigned structures. Silica gel (for example, obtained commercially from J. T. Baker) of approximately 40 μm diameter was used for flash chromatography (STILL, W. C., KAHN, M. AND MITRA, A. (1978), "Rapid chromatographic technique for preparative separations with moderate resolutions", Journal of Organic Chemistry, 43, 2923), which was performed at 5-10 psi. Petroleum ether was of bp 30°-60° C. When necessary, solvents or reagents were dried by appropriate methods. Evaporations were carried out in vacuo on a rotary evaporator or under a stream of dry N2. Melting points were taken on a Thomas-Hoover capillary melting point apparatus and are uncorrected. Reaction progress and product purity were monitored by analytical TLC on strips of Eastman Kodak plastic-backed SiO2 60 F254 or Al2 O3 F254. Developed strips were viewed under light of 254 and 365 nm wavelengths. Elemental analyses were done by Midwest Microlab Ltd., Indianapolis, IN. Acceptable elemental results are denoted in Table I by the formula, followed by the elements analyzed. Melting points and yields of all compounds were based on pure samples unless otherwise noted, are listed in Table I. Para-Bromoanisole, p-methoxydeoxybenzoin, anisole, p-methoxybenzaldehyde, and 2,3-bis-(p-methoxyphenyl)-acrylic acid and trans-p-methoxystilbene (the olefin), were purchased from Aldrich & Co. The cyclopropanes 1,1-dichloro-cis-2-(p-hydroxyphenyl)-3-phenylcyclopropane (9), and its trans isomer 1,1-dichloro-trans-2-(p-Hydroxyphenyl)-3phenylcyclopropane (17) were prepared from Compounds 8 & 16, respectively. […] Tamoxifen was obtained from Stuart Pharmaceuticals, Division of ICI Americas, Inc., Wilmington, Del. 19897. MER 25 was obtained from the Merrell Dow Research Institute, Division of Merrell Dow Pharmaceuticals, Inc., Cincinnati, Ohio. Protein Assay Reagent, Pierce Chemical Co., Rockford, Ill. 61105. Diethylstilbestrol, β-estradiol, EDTA, DL-dithiothreitol, Sodium molybdate, and Tris (hydroxymethyl) aminomethane hydrochloride were purchased from Sigma Chemical Co., St. Louis, Mo. 63178.
Essentially, the intermediate olefin acids (Compounds 6 & 12) were obtained from a mixed Perkin and Knoevenagel-type condensation involving the reaction of p-methoxyaldehyde (Compound 4) with phenylacetic acid (Compound 5), or p-methoxyphenylacetic acid (Compound 11) in triethylamine and acetic anhydride. To prepare cis-p-methoxystilbene (Compound 7) or bis-(p-methoxy)-cis-stilbene (Compound 13). Decarboxylation of 6 & 12 with quinoline (prevents isomerizations; KLEIN, J. AND MEYER, A. Y. (1964), "The decarboxylation of α-cyano-and α-carboxycinnamic acids", Journal of Organic Chemistry, 29, 1038), and copper chromite at elevated temperature provided 7 & 13. High temperature during distillation caused 8% isomerization to the trans-isomer (15), which was isolated by column chromatography. Dichlorocarbene generation used the catalytic phase transfer method (21, 37) (used extensively in our laboratory) of 50% aqueous solution of NaOH, CHCl3 and benzyltriethylammonium chloride (TEBA) as the anion transfer agent. […]

estrogen receptor [2] = target: T1, estrogen receptor (Rattus norvegicus, UniProt P06211); conditions: relative to estradiol = 100%; Day et al., J. Med. Chem. 34, 842-851 (1991); cited from earlier work
T1 construct: ovariectomized rat uterine cytosolic estrogen receptor preparation; from tissue; host or cells: uterine cytosol of ovariectomized Sprague-Dawley rats (immature rats from Sasco are named as uterus source, mature ovariectomized rats)
T1 sequence (P06211 1-600): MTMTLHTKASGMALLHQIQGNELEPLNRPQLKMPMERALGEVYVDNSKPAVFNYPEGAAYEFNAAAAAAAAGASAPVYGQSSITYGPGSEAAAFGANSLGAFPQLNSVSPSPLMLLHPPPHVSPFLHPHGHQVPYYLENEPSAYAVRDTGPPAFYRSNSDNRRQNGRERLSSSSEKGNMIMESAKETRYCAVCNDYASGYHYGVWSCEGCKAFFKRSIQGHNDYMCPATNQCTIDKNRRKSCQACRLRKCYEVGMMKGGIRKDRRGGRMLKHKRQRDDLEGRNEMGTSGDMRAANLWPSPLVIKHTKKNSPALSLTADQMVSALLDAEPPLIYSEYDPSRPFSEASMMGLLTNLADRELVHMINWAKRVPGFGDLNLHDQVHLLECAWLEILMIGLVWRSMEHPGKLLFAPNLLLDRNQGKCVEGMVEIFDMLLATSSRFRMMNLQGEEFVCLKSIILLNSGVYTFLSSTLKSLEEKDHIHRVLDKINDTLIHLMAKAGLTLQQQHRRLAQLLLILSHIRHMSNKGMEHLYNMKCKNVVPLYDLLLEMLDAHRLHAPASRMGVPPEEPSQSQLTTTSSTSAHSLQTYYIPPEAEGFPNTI

[3] = system: MCF-7 human breast cancer cells; conditions: cited from earlier work; for MCF-7 Inhibition: 10^-6 M, Day et al., J. Med. Chem. 34, 842-851 (1991)
estrogen receptor [4] = target: T1, estrogen receptor; assay: Receptor binding assay: displacement of [3H]-estradiol from rat uterine cytosol; set-up: species or system rat (Sprague-Dawley); conditions: relative to estradiol = 100%; average of duplicate determinations minus nonspecific binding
Text: (§1) The biological evaluation of the test compounds consisted of the in vitro rat cytosolic estradiol receptor binding assay, the in vivo immature mouse uterotrophic (estrogenic) and antiuterotrophic (antiestrogenic) assays, and the in vitro suppression of the proliferation of the ER positive MCF-7 human breast cancer cell line. Estradiol (pure agonist), TAM (agonist in mice and antagonist in MCF-7), MER 25 (pure antagonist) and Analog II (antagonist in mice) were used in the assay as standards.
(§2) Vital-free immature female Swiss-Webster mice were obtained at 17-19 days of age from Sasco weighing 8-10 g, and were used in the uterotrophic and antiuterotrophic assays. Immature female Sprague-Dawley rats, obtained at 17-19 days of age from Sasco, weighing 28-33 g, were used as sources of uteri for the estradiol receptor binding assay. Animals were housed in wire topped polycarbonate cages at six animals per cage, with the environment controlled at 25° C. and a 12 h light/dark cycle. The animals received a diet of Wayne Lab Blox rodent chow and tap water ad libitum.
The RBAs of the test compounds were determined by the displacement of [^3 H]-estradiol in vitro, as described previously (DAY, B. W., […], R. A., JAIN, P., PENTO, J. T., MOUSISSIAN, G. K. AND MEYER, K. L. (1991), "Synthesis and biological evaluation of a series of 1,1-dichloro-2,2,3-triarylcyclopropanes as pure antiestrogens", Journal of Medicinal Chemistry, 34, 842; KORENMAN, S. G. (1969), "Comparative binding affinity of estrogens and its relation to estrogenic potency", Steroid, 13, 163). Mature female Sprague-Dawley rats were ovariectomized at least two weeks prior to the receptor binding experiment. Each test compound was assayed at three concentrations in duplicate over a range of 10^-3 -10^-5 M and 10^-6 -10^-8 M for the estradiol standard. The non-specific binding was determined by a parallel incubation of each compound with the addition of diethylstilbestrol to give a final concentration of 2×10^-5 M DES which was sufficient to saturate all the estrogen receptors present in the cytosolic fraction. Specific displacement for each compound was determined by subtraction of nonspecific displacement from total displacement. The [^3 H]-estradioldisplacement curve for each test compound was determined by linear repression analysis and plotted graphically. The relative binding affinity for each compound was calculated (BLISS, C.I. (1967), "The statistics in biology", McGraw Hill, Inc: New York).
^a Determined by competitive radiometric binding assay with rat
uterine cytosol as a source of receptor, [^3 H]estradiol as tracer,
and dextrancoated charcoal as absorbant for free ligand.
^c Binding affinities are expressed relative to that of estradiol =
100% (RBA = relative binding affinity) and are the average of duplicate
determinations minus nonspecific binding.
The relative binding affinities (RBAs), as determined by the competitive radiometric binding assay and measured by [^3 H]-estradiol displacement from the ovariectomized rat uterine cytosolic estrogen receptor preparation, after subtracting non-specific receptor binding, were calculated for all of the synthesized target compounds, TAM, MER 25, Analog II, and estradiol. The displacement curves were plotted as percent receptor-bound [^3 H]-estrodiol versus concentration of test compounds (not shown) and the receptor binding affinity of each compound is presented in Table II.

[5] = system: Immature Swiss-Webster female mice (uterine weight); assay: Uterotrophic assay for estrogenic activity in immature mice; format: in vivo, mouse (Swiss-Webster); conditions: doses of 5, 25 and 100 μg (total dose)
Text: The biological evaluation of the test compounds consisted of the in vitro rat cytosolic estradiol receptor binding assay, the in vivo immature mouse uterotrophic (estrogenic) and antiuterotrophic (antiestrogenic) assays, and the in vitro suppression of the proliferation of the ER positive MCF-7 human breast cancer cell line.
as §2
Immature Swiss-Webster female mice (8-15 g) at 17-19 days of age were used. Estradiol was used in the dosage range of […] (total dose) as the assay standard. Each cyclopropyl analogue was examined at doses of 5, 25, and 100 μg (total dose). […] Estrogenic activity was measured as an increase in uterine weight produced by each test compound.

[6] = system: MCF-7 human breast cancer cells; assay: In vitro MCF-7 human breast cancer cell growth inhibition assay; format: cell-based
Text: as §1
MCF-7 (estrogen-receptor positive) human breast cancer cells (obtained from the Michigan Cancer Foundation, Detroit, Mich.) were grown at 37° C. in 75 cm^2 tissue culture (T-75) flasks, as monolayer cultures in RPMI 1640 phenol red-free media supplemented with 2 mM L-glutamine, gentamicin (50 μg/mL), penicillin (100 units/mL), streptomycin (100 μg/mL ) and calf serum (5%). Cultures were grown in an incubator 37° C. in a humid 5% CO2 atmosphere, and fed on alternate days. Expotential growth was maintained by subculturing at eight day intervals when the cells per T-75 flask reached 10 to 12×10^6 cells. Cells were trypsinized, washed and plated in multiwell plates at a density of 5×10^4 cells/well in 3 mL of RPMI 1640 media. The cells were allowed to attach and were in logarithmic growth when the test compounds were added. The test compounds (10^-6 M) in the presence or absence of a 10-fold lower dose of estradiol were dissolved in a polyethylene glycol 400: ethanol (55:45) mixture and added in the culture media in duplicate. Control samples received vehicle alone at the same concentration used in the treatment groups. The final concentration of the vehicle mixture was 0.1% of the incubation media. Cell growth was measured on alternate days using the hemocytometric trypan blue exclusion method. Percent inhibition of MCF-7 cells was calculated as the ratio of the control mean cell count per well minus the treatment group mean cell count per well to the control mean cell count per well, multiplied by 100.
^b % MCF7 inhibition was calculated as follows: […]
Thirteen compounds, Analog II, TAM, and MER 25 were tested for their antiproliferative activity in the MCF-7 human breast cancer cell line (Table II). Compounds were tested at a concentration of 10^-6 M in the presence or absence of 10^-7 M estradiol to assess their ability to alter the growth of the calls (Table II). The 10^-6 M concentration was selected since it was reported that the inhibition of the MCF-7 cells by antiestrogens and TAM occurred either at that concentration or less, and were both selective and estrogen receptor specific. Concentrations of antiestrogens greater than 5×10^-6 M were reported to have nonspecific cytotoxic effects (BRIAND, P. AND […], A. E. (1984), "Effect of estrogen and antiestrogen on the human breast cancer cell line MCF-7 adapted to growth at low serum concentration", Cancer Research, 44, 1114).

Oc1ccc([C@H]2[C@@H](c3ccccc3)C2(Cl)Cl)cc1 (relative stereo) [Compound 9, 1,1-dichloro-cis-2-(p-hydroxyphenyl)-3-phenylcyclopropane]
stability (in words) [1]: instability to air and light; also recorded: underwent gradual color changes when concentrated

Oc1ccc([C@H]2[C@H](c3ccccc3)C2(Cl)Cl)cc1 (relative stereo) [Compound 17, 1,1-dichloro-trans-2-(p-hydroxyphenyl)-3-phenylcyclopropane]
stability (in words) [1]: underwent gradual color changes when concentrated

ClC1(Cl)[C@H](c2ccccc2)[C@@H]1c1ccccc1 [Analog II]
RBA (relative binding affinity) (estrogen receptor [2]): 0.01% | MCF-7 Inhibition [3]: 20.4%

Oc1ccc(C2(c3ccc(O)cc3)C(c3ccccc3)C2(Cl)Cl)cc1 (centres unmarked) [Compound 36]
stability (in words) [1]: Drying of phenol 36 at a high temperature resulted in the formation of an indene

CC(=O)Oc1ccc(C2(c3ccc(OC(C)=O)cc3)C(c3ccccc3)C2(Cl)Cl)cc1 (centres unmarked) [Compound 37, 1,1-Dichloro-2,2-bis-(p-acetoxyphenyl)-3-phenylcyclopropane]
RBA (relative binding affinity) (estrogen receptor [4]): 0.08% | uterine weight response (estrogenic activity, in words) [5]: well below the control group | effect on MCF-7 cell growth (in words) ([6]; 10^-6 M): did not alter cell growth | inhibition at 1 µM ([6]; Homo sapiens, MCF7, read-out: MCF-7 Inhibition): < 10%

CC/C(=C(\c1ccccc1)c1ccc(OCCN(C)C)cc1)c1ccccc1 [Tamoxifen]
MCF-7 Inhibition [3]: 25.6% | concentration at which inhibition of MCF-7 cells occurred ([3]; reported as selective and estrogen receptor specific): ≤ 10^-6 M
